Data from US11377425B1, “Small molecule modulators of IL-17” (LEO Pharma A/S, priority 2018, dated 2022).

Target: T1, human IL-17AA (Homo sapiens, UniProt Q16552)
T1 construct: host or cells: HEK (human embryonic kidney) cells
T1 sequence (Q16552 24-155): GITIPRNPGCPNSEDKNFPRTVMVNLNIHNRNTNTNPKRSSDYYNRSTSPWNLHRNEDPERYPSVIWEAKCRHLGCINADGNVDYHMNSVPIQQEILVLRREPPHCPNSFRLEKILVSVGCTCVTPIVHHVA
Assay: IL-8 release assay in human epithelial keratinocytes adult (HEKa)
Assay type: cell-based
Settings: HEKa cells, 3 ng/mL HEK-human IL-17AA + 10 ng/mL human TNFalpha; read-out: Rel EC50 IL-8 release assay
Description: Example 138: IL-8 Release Assay in Human Epithelial Keratinocytes Adult (HEKa)
Keratinocytes were seeded at 3500 cells/well in 384-well ViewPlates (Perkin Elmer) in Epilife medium (Thermo Fisher) containing human keratinocyte growth supplement (HKGS) without hydrocortisone and incubated in a humid incubator at 37° C. 5% CO2, overnight. The following day growth medium was removed and 25 μl fresh Epilife medium added. 75 nL test compound in 100% DMSO was added into each well reserved for test compounds, by the use of acoustic pipetting. The remaining wells received an equal volume of DMSO only, as vehicle control, or terfenadine in DMSO, as a positive control for any cytotoxic compounds. Subsequently, another 25 μL Epilife medium was added to each well. Finally, wells containing test compounds and wells prepared to yield maximum stimulation received […] of 9 ng/mL recombinant, human embryonic kidney cell (HEK)-derived human IL-17AA+30 ng/mL human TNF-alpha, in Epilife medium. Wells prepared to define 100% inhibition of IL-17 effects received 25 μL of 30 ng/mL human TNF-alpha alone, in Epilife medium. Final concentrations were 3 ng/mL HEK-human IL-17AA+10 ng/mL human TNFalpha (maximum stimulation) and 10 ng/mL human TNFalpha alone (100% inhibition, Emax), respectively. Cells were incubated for 68-72 hours in the incubator. IL-8 released from the cells was measured by the use of a commercial homogenous time-resolved fluorescence (HTRF) assay (CisBio). 2 μL cell culture supernatant was transferred to a 384-well Proxiplate. 5 μL HTRF reagent was added and the plates incubated sealed in the dark for 3-22 hours at room temperature. Time-resolved fluorescence was read at 665 vs 620 nm, with excitation at 320 nm, and IL-8 levels calculated as percent of controls. Reduction of the amount of secreted IL-8 indicates decreased IL-17 signaling. Concentration response curves were fitted by the use of a four-parameter logistic equation. Relative IC50 and Emax were reported from curves showing acceptable fit (r^2>0.9). Cytotoxicity was measured in the cell-containing Viewplates following addition of 7 μL PrestoBlue (Thermo Fisher) and incubation for 2.5-3 hours at room temperature, by measuring fluorescence at 615 nm (excitation at 535 nm). Fluorescence was directly proportional to the amount of metabolic activity. Reduction of fluorescence signal indicated cytotoxicity.
Compounds of the present invention were tested in the IL-8 release assay in human epithelial keratinocytes.
Compounds having a Relative EC50 of X; wherein X<100 nM; are indicated with *
Compounds having a Relative EC50 of X; wherein 100 nM<X<1000 nM; are indicated with **
Compounds having a Relative EC50 of X; wherein 1000 nM<X; are indicated with ***

| Compound | EC50 |
| --- | --- |
| CCC(C)[C@H](NC(=O)OC(C)(C)C)C(=O)Nc1ccc(-c2cncn2C)cc1 (stereo partly drawn) [Example 94, tert-butyl N-[(1S)-2-methyl-1-[[4-(3-methylimidazol-4-yl)phenyl]carbamoyl]butyl] carbamate] | > 1000 nM |
| Cc1n[nH]c(C)c1-c1ccc(NC(=O)[C@@H](NC(=O)OCCCCO)C(C2CC2)C2CC2)cc1 [Example 479, 4-hydroxy butyl N-[(1S)-1-(dicyclopropylmethyl)-2-[4-(3,5-dimethyl-1H-pyrazol-4-yl)anilino]-2-oxo-ethyl]carbamate] | 100 to 1000 nM |
| Cc1n[nH]c(C)c1-c1ccc(NC(=O)[C@@H](NC(=O)c2ccnn2CC#N)C(C2CC2)C2CC2)cc1 [Example 207, 2-(cyanomethyl)-N-[(1S)-1-(dicyclopropylmethyl)-2-[4-(3,5-dimethyl-1H-pyrazol-4-yl)anilino]-2-oxo-ethyl]pyrazole-3-carboxamide] | 100 to 1000 nM |
| CCc1nocc1C(=O)N[C@H](C(=O)Nc1ccc(-c2c(C)n[nH]c2C)cc1)C1CCCCC1 [Example 276, N-[(1S)-1-cyclohexyl-2-[4-(3,5-dimethyl-1H-pyrazol-4-yl)anilino]-2-oxo-ethyl]-3-ethyl-isoxazole-4-carboxamide] | < 100 nM |
| Cc1n[nH]c(C)c1-c1ccc(NC(=O)C(NC(=O)c2ccnn2CCC(C)O)C2CCCCCCC2)cc1 (single isomer, unassigned) [Example 143, N-[1-cyclooctyl-2-[4-(3,5-dimethyl-1H-pyrazol-4-yl)anilino]-2-oxo-ethyl]-2-(3-hydroxybutyl)pyrazole-3-carboxamide] | 100 to 1000 nM |
| Cc1n[nH]c(C)c1-c1ccc(NC(=O)[C@@H](NC(=O)c2ccnn2C)C2CCCCCC2)cc1 [Example 3, N-[(1S)-1-cycloheptyl-2-[4-(3,5-dimethyl-1H-pyrazol-4-yl)anilino]-2-oxo-ethyl]-2-methyl-pyrazole-3-carboxamide] | < 100 nM |
| Cc1n[nH]c(C)c1-c1ccc(NC(=O)C(NC(=O)c2ccnn2C)C(C(F)(F)F)C(F)(F)F)cc1 (racemic) [Example 14] | > 1000 nM |
| Cc1n[nH]c(C)c1-c1ccc(NC(=O)[C@@H](NC(=O)c2ccnn2C(C)C)C(C2CC2)C2CC2)cc1O [Example 410, N-[(1S)-1-(Dicyclopropylmethyl)-2-[4-(3,5-dimethyl-1H-pyrazol-4-yl)-3-hydroxy-anilino]-2-oxo-ethyl]-2-isopropyl-pyrazole-3-carboxamide] | < 100 nM |
| Cc1n[nH]c(C)c1-c1ccc(NC(=O)C(NC(=O)c2ccnn2C)C(C)c2ccccc2)cc1 (single isomer, unassigned) [Example 237] | > 1000 nM |
| Cc1n[nH]c(C)c1-c1ccc(NC(=O)C(NC(=O)c2ccnn2C)C2CCc3c(F)cccc32)cc1 (single isomer, unassigned) [Example 248] | > 1000 nM |
| Cn1cncc1-c1ccc(NC(=O)[C@@H](NC(=O)c2ccnn2C)C(c2ccccc2)c2ccccc2)cc1 [Example 346, N-[(1S)-1-benzhydryl-2-[4-(3-methylimidazol-4-yl)anilino]-2-oxo-ethyl]-2-methyl-pyrazole-3-carboxamide] | 100 to 1000 nM |
| Cc1n[nH]c(C)c1-c1ccc(NC(=O)[C@@H](NC(=O)c2ccnn2C)C2CCC(F)(F)CC2)cc1 [Example 11, N-[(1S)-1-(4,4-difluorocyclohexyl)-2-[4-(3,5-dimethyl-1H-pyrazol-4-yl)anilino]-2-oxo-ethyl]-2-methyl-pyrazole-3-carboxamide] | 100 to 1000 nM |
| Cn1cncc1-c1ccc(NC(=O)[C@@H](NC(=O)c2ccnn2C)C2CCCCC2)cc1 [Example 343, N-[(1S)-1-cyclohexyl-2-[4-(3-methylimidazol-4-yl)anilino]-2-oxo-ethyl]-2-methyl-pyrazole-3-carboxamide] | > 1000 nM |
| Cc1n[nH]c(C)c1-c1ccc(NC(=O)[C@@H](NC(=O)N(C)CCCCO)C2CCCCC2)cc1 [Example 476, (2S)-2-cyclohexyl-N-[4-(3,5-dimethyl-1H-pyrazol-4-yl)phenyl]-2-[[4-hydroxybutyl(methyl)carbamoyl]amino]acetamide] | 100 to 1000 nM |
| Cc1n[nH]c(C)c1-c1ccc(NC(=O)[C@@H](NC(=O)c2ccnn2C)C2CC3CCC2CC3)cc1 (single isomer, unassigned) [Example 254] | 100 to 1000 nM |
| Cc1n[nH]c(C)c1-c1ccc(NC(=O)C(NC(=O)c2ccnn2C(C)C)C(C2CC2)C2CC2)cc1 (racemic) [Example 31, N-[1-(dicyclopropylmethyl)-2-[4-(3,5-dimethyl-1H-pyrazol-4-yl)anilino]-2-oxo-ethyl]-2-isopropyl-pyrazole-3-carboxamide] | < 100 nM |
| Cc1n[nH]c(C)c1-c1ccc(NC(=O)[C@@H](NC(=O)c2ccnn2C(C)CO)C2CCCCC2)cc1 (single isomer, unassigned) [Example 104] | 100 to 1000 nM |
| Cc1n[nH]c(C)c1-c1ccc(NC(=O)[C@@H](NC(=O)N2CCCCC2)C2CCCCC2)cc1 [Example 472, N-[(1S)-1-cyclohexyl-2-[4-(3,5-dimethyl-1H-pyrazol-4-yl)anilino]-2-oxo-ethyl]piperidine-1-carboxamide] | > 1000 nM |
| Cc1n[nH]c(C)c1-c1ccc(NC(=O)C(NC(=O)c2ccnn2C(C)C)C(C2CC(F)(F)C2)C2CC(F)(F)C2)cc1 (racemic) [Example 294, N-[1-[bis(3,3-difluorocyclobutyl)methyl]-2-[4-(3,5-dimethyl-1H-pyrazol-4-yl)anilino]-2-oxo-ethyl]-2-isopropyl-pyrazole-3-carboxamide] | 100 to 1000 nM |
| Cc1n[nH]c(C)c1-c1ccc(NC(=O)[C@@H](NC(=O)c2ccnn2C(C)CO)[C@H]2CC[C@H](C)CC2)cc1 (single isomer, unassigned) [Example 204] | < 100 nM |
| Cc1n[nH]c(C)c1-c1ccc(NC(=O)[C@@H](NC(=O)OC2CC2)C(c2ccccc2)c2ccccc2)cc1 [Example 426, cyclopropyl N-[(1S)-1-benzhydryl-2-[4-(3,5-dimethyl-1H-pyrazol-4-yl)anilino]-2-oxo-ethyl]carbamate] | 100 to 1000 nM |
| Cc1n[nH]c(C)c1-c1ccc(NC(=O)[C@@H](NC(=O)c2ccnn2C2CC2)C(C2CC2)C2CC2)cc1 [Example 116, 2-cyclopropyl-N-[(1S)-1-(dicyclopropylmethyl)-2-[4-(3,5-dimethyl-1H-pyrazol-4-yl)anilino]-2-oxo-ethyl]pyrazole-3-carboxamide] | < 100 nM |
| Cc1n[nH]c(N)c1-c1ccc(NC(=O)[C@@H](NC(=O)c2ccnn2C)C(C2CCC2)C2CCC2)cc1 [Example 451, N-[(1S)-1-[[4-(3-amino-5-methyl-1H-pyrazol-4-yl)phenyl]carbamoyl]-2,2-di(cyclobutyl)ethyl]-2-methyl-pyrazole-3-carboxamide] | < 100 nM |
| Cn1cncc1-c1ccc(NC(=O)[C@@H](NC(=O)C2(F)CC2)C(c2ccccc2)c2ccccc2)cc1 [Example 347, N-[(1S)-1-benzhydryl-2-[4-(3-methylimidazol-4-yl)anilino]-2-oxo-ethyl]-1-fluoro-cyclopropanecarboxamide] | 100 to 1000 nM |
| Cn1cncc1-c1ccc(NC(=O)[C@@H](NC(=O)OC(C)(C)C)C2CCCCC2)cc1 [Example 100, tert-butyl N-[(1S)-1-cyclohexyl-2-[4-(3-methylimidazol-4-yl)anilino]-2-oxo-ethyl]carbamate] | > 1000 nM |
| Cc1n[nH]c(C)c1-c1ccc(NC(=O)[C@@H](NC(=O)c2ccnn2C)C2CCCC2(C)C)cc1 (stereo partly drawn) [Example 231, N-[(1S)-1-(2,2-dimethylcyclopentyl)-2-[4-(3,5-dimethyl-1H-pyrazol-4-yl)anilino]-2-oxo-ethyl]-2-methyl-pyrazole-3-carboxamide] | < 100 nM |
| Cc1[nH]nc(C2CC2)c1-c1ccc(NC(=O)[C@@H](NC(=O)c2ccnn2[C@@H](C)CO)C(C2CC2)C2CC2)cc1 [Example 389, N-[(1S)-2,2-dicyclopropyl-1-[[4-(3-cyclopropyl-5-methyl-1H-pyrazol-4-yl)phenyl]carbamoyl]ethyl]-2-[(1S)-2-hydroxy-1-methyl-ethyl]pyrazole-3-carboxamide] | < 100 nM |
